Values after ≈ are worked out from the molar mass of the structure shown.

One test has as its system S. aureus A-5278. Nature of the test: In vitro antibacterial activity, agar dilution MIC. It is filed as cell-based, Staphylococcus aureus. Particulars: BHI agar dilution, 35-37° C., 20 to 24 hours. The protocol: (§1) Representative compounds of the present invention were assayed in vitro for antibacterial activity as follows: Petri dishes containing successive aqueous dilutions of the test compound mixed with 10 mL of sterilized Brain Heart Infusion (BHI) agar (Difco 0418-01-5) were prepared. Each plate was inoculated with 1:100 dilutions of a different microorganism, using a Steers replicator block. The inoculated plates were incubated at 35-37° C. for 20 to 24 hours. In addition, a control plate, using BHI agar containing no test compound, was prepared and incubated at the beginning and end of each test.
(§2) An additional plate containing a compound having known susceptibility patterns for the organisms being tested and belonging to the same antibiotic class as the test compound was also prepared and incubated as a further control, as well as to provide test-to-test comparability. Erythromycin A was used for this purpose.
(§3) After incubation, each plate was visually inspected. The minimum inhibitory concentration (MIC) was defined as the lowest concentration of drug yielding no growth, a slight haze, or sparsely isolated colonies on the inoculum spot as compared to the growth control.

Test [1] has as its system Resistant Staphylococcus aureus 1775. Nature of the test: In vitro antibacterial activity, agar dilution MIC. Format: cell-based. The conditions noted are these: BHI agar dilution, 35-37° C., 20 to 24 hours. As for the experimental part: as §1, §2, §3
On the technique in general: Agar dilution tests growth on a series of plates holding different concentrations.

A word on the MIC: it is the smallest concentration in the dilution series that meets the test's criterion for growth inhibition. Regarding `COc1cccc(OC)c1C(=O)N[C@@H]1C(=O)N2[C@@H]1SC(C)(C)[C@@H]2C(=O)O` [Methicillin, reference compound], the MIC against S. aureus A-5278 (Staphylococcus aureus, A5278) was above 100 mg/L; in test [1] (Staphylococcus aureus, read-out: MIC S. aureus 1775) it was above 100 mg/L.

For `CCON=C1C(C)CC(C)(OCC=Cc2cnc3ccccc3c2)C(OC2OC(C)CC(N(C)C)C2O)C(C)C(=O)C(C)C(=O)OC(CC)C(C)(O)C(O)C1C` (stereo not shown) [Ex. 1, 6-O-[3-(3-quinolyl)-2-propen-1-yl]-3-descladinose-3-oxo-9-[(O-ethyl)oxime] Erythromycin A], the “MIC S. aureus A-5278” value against S. aureus A-5278 amounted to 25 mg/L (≈ 31.9 µM). Also, the “MIC S. aureus 1775” value in test [1] worked out at 12.5 mg/L (≈ 15.9 µM).

Regarding `CCC1OC(=O)C(C)C(OC2CC(C)(OC)C(O)C(C)O2)C(C)C(OC2OC(C)CC(N(C)C)C2O)C(C)(OCc2ccc(-c3ccccc3)cc2)CC(C)C(=NO)C(C)C(O)C1(C)O` (stereo not shown) [Ex. 13, 6-O-[(4-Phenyl)benzyl]-9-oxime Erythromycin A], the “MIC S. aureus A-5278” value in the test with S. aureus A-5278 stood at 50 mg/L (≈ 54.6 µM). The “MIC S. aureus 1775” value in test [1] was determined as 25 mg/L (≈ 27.3 µM).

Regarding `CCC1OC(=O)C(C)C(OC2CC(C)(OC)C(O)C(C)O2)C(C)C(OC2OC(C)CC(N(C)C)C2O)C(C)(OCc2cccc(I)c2)CC(C)C(=NO)C(C)C(O)C1(C)O` (stereo not shown) [Ex. 12, 6-O-[(3-Iodo)benzyl]-9-oxime Erythromycin A], the “MIC S. aureus A-5278” value in the test on S. aureus A-5278 turned out to be 25 mg/L (≈ 25.9 µM). For the same compound, in test [1], the “MIC S. aureus 1775” value is 25 mg/L (≈ 25.9 µM).

Consider `CC[C@H]1OC(=O)[C@H](C)[C@@H](O[C@H]2C[C@@](C)(OC)[C@@H](O)[C@H](C)O2)[C@H](C)[C@@H](O[C@@H]2O[C@H](C)C[C@H](N(C)C)[C@H]2O)[C@](C)(O)C[C@@H](C)C(=O)[C@H](C)[C@@H](O)[C@]1(C)O` [Erythromycin, Erythromycin A, reference compound], for which the “MIC S. aureus A-5278” value in the test on S. aureus A-5278 is above 100 mg/L. In test [1], the “MIC S. aureus 1775” value is above 100 mg/L.

Values taken from patent US6946446B2, “Anti-infective agents useful against multidrug-resistant strains of bacteria” (Abbott Laboratories, priority 2000, dated 2005).
